Data set [1] concerns skin (forearm of panelists). The data set can be described thus: Moisturizing effect on skin: skin conductance (SKICON200-EX) on forearm of panelists. Type of data set: in vivo, human. The note with it: for change in vivo at 5 %: Homo sapiens, topical, 20 min, read-out: Moisturizing effect on skin. Here is the method:
Evaluation was carried out in a manner that forearm of panelists was washed and then applied with 100 μl of aqueous amino acid N-glyceryl derivative solution prepared in 5% concentration. Then, conductance value of the skin was measured by SKICON200-EX (manufactured by IBS K. K.) before the application and in 20 minutes elapsed after the application.
Moisturizing effect on skin was evaluated by the following criteria.
Moisturizing effect on skin rating criteria • ◯: Conductance changing ratio is 10% more • □: Conductance changing ratio is 3% or more and less than 10% • X: Conductance changing ratio is less than 3.

A short description of data set [2]: Stability evaluation: odor of sample solution after storage at 50° C. for 1 month. Conditions: for Stability: 5% by weight sample solution, sealed, 50° C., 1 month, odor, average of 5 panelists (3: no degradation odor, 1: strong degradation odor); for Formation of homogeneous solution of sample: 5% by weight sample solution for stability evaluation.
Text: [Method of Stability Evaluation]
After 1 month being elapsed, the sealing was opened, followed by odor of samples being evaluated by 5 panelists according to the following criteria.
Odor rating criteria • 3: No degradation odor • 2: Almost no degradation odor • 1: Strong degradation odor
Odor evaluation value of each sample was the average of values determined by 5 panelists; the evaluation result was represented by the following marks rated according to respective criteria. • ∘: 2.4 or more and less than 3 • □: 1.8 or more and less than 2.4 • X: Less than 1.8
The nature of data set [3]: Moisture-absorption ability measurement employing keratin powder (ground wool). The format is physicochemical. The note with it: keratin powder with sample, 20° C., 79.2% relative humidity, 48 hours; absorbed water per 1 g of keratin powder. The protocol:
[Method of Moisture-Absorption Ability Measurement Carried Out by Employing Keratin Powder (Ground Wool)]
Moisture-absorption ability was evaluated by the following criteria.
Moisture-absorption ability rating criteria • ⊚: Amount of absorbed water per 1 g of keratin powder is 0.60 g or more. • ◯: Amount of absorbed water per 1 g of keratin powder is 0.50 g or more and less than 0.60 g • Δ: Amount of absorbed water per 1 g of keratin powder is 0.40 g or more and less than 0.50 g • X: Amount of absorbed water per 1 g of keratin powder is less than 0.40 g [Method of Moisturizing Effect Measurement Carried Out by Employing Keratin Powder (Ground Wool)]

The nature of data set [4]: Moisturizing effect measurement employing keratin powder (ground wool). The format is physicochemical. The note with it: (B/A)×100: water retained after further 6 hours at 20° C., 20.0% relative humidity, relative to water absorbed at 79.2% relative humidity for 48 hours. Here is the method: For the constant-humidity bath under 20.0% of relative humidity, saturated aqueous potassium acetate solution was employed.
Moisturizing effect was evaluated by the following criteria,
Moisturizing effect rating criteria • ⊚: 60 or more • ◯: 50 or more and less than 60 • Δ: 40 or more and less than 50 • X: Less than 40

Where [5] appears, read: 100 μl of 5% aqueous solution on washed forearm, ten panelists, conductance changing ratio before vs 20 minutes after application.

Consider 25 compounds from US20060018864A1, “Cosmetic preparation containing glycerylamino acid derivative” (priority 2002, published 2006).

Like-named read-outs stand apart in the source and are kept apart here.

Consider `CC(O)CCO` (centres unmarked) [1,3-Butylene glycol], for which, in data set [1] (setting [5]), the “Moisturizing effect on skin” value is “Δ”. Moreover, in data set [2], the Stability entry is reported as “Δ”. Also, in data set [3], the Moisture-absorption ability entry is “Δ (Amount of absorbed water per 1 g of keratin powder is 0.40 g or more and less than 0.50 g)”. For the same compound, the Moisturizing effect entry in data set [4] is “Δ (40 or more and less than 50)”.
As to `Cl.NCCCC[C@H](N)C(=O)O` [Lysine hydrochloride], in data set [1] (setting [5]), the “Moisturizing effect on skin” value was “Δ”. In data set [2], the Stability result is recorded as “Δ”. Also, in data set [3], the Moisture-absorption ability entry was “Δ (Amount of absorbed water per 1 g of keratin powder is 0.40 g or more and less than 0.50 g)”. For the same compound, the Moisturizing effect entry in data set [4] was “Δ (40 or more and less than 50)”.
Take `N[C@@H](CCC(=O)[O-])C(=O)[O-].O.[Na+].[Na+]` [Sodium glutamate hydrate]: the change in vivo at 5 % in data set [1] was greater than 10%. Moreover, the Stability result in data set [2] is “Δ”. Besides, in data set [3], the Moisture-absorption ability result is “Δ (Amount of absorbed water per 1 g of keratin powder is 0.40 g or more and less than 0.50 g)”. The Moisturizing effect result in data set [4] is “Δ (40 or more and less than 50)”.
`CC(C)C[C@H](N)C(=O)O` [Leucine]: in data set [1] (setting [5]), the change in vivo at 5 % was less than 3%. For the same compound, in data set [2], the “Formation of homogeneous solution of sample” value was “did not form homogeneous solution” and the Stability entry was “Δ”.
With `C[C@H](NCC(O)CO)C(=O)O` (some centres unmarked) [Glyceryl derivative of alanine, N-glycerylalanine], the change in vivo at 5 % in data set [1] (setting [5]) is greater than 10%. Also, the Stability entry in data set [2] is recorded as “Δ”. The Moisture-absorption ability entry in data set [3] was “⊚ (Amount of absorbed water per 1 g of keratin powder is 0.60 g or more)”. For the same compound, the Moisturizing effect entry in data set [4] is “◯ (50 or more and less than 60)”.
As to `O=C(O)[C@H](CO)NCC(O)CO` (some centres unmarked) [Glyceryl derivative of serine, N-glycerylserine], in data set [1] (setting [5]), the change in vivo at 5 % was greater than 10%. Further, the Stability result in data set [2] is recorded as “◯”. Moreover, the Moisture-absorption ability entry in data set [3] is “⊚ (Amount of absorbed water per 1 g of keratin powder is 0.60 g or more)”. Also, the Moisturizing effect entry in data set [4] was “⊚ (60 or more)”.
`Cl.N=C(N)NCCC[C@H](NCC(O)CO)C(=O)O` (some centres unmarked) [Glyceryl derivative of arginine, N-glycerylarginine hydrochloride]: the “Moisturizing effect on skin” value in data set [1] (setting [5]) is “⊚”. The Stability entry in data set [2] is “⊚”. In addition, in data set [3], the Moisture-absorption ability entry is listed as “⊚ (Amount of absorbed water per 1 g of keratin powder is 0.60 g or more)”. Besides, the Moisturizing effect result in data set [4] is given as “⊚ (60 or more)”.
As to `CNCC(=O)O` [Sarcosine], the change in vivo at 5 % in data set [1] (setting [5]) was less than 3%. In addition, the Stability entry in data set [2] was “Δ”. Besides, the Moisture-absorption ability entry in data set [3] is “Δ (Amount of absorbed water per 1 g of keratin powder is 0.40 g or more and less than 0.50 g)”. For the same compound, in data set [4], the Moisturizing effect result was “Δ (40 or more and less than 50)”.
On to `O=C(O)[C@@H]1CCCN1CC(O)CO` (some centres unmarked) [Glyceryl derivative of proline, N-glycerylproline], for which the change in vivo at 5 % in data set [1] (setting [5]) is greater than 10%. Further, in data set [2], the Stability entry is listed as “Δ”. For the same compound, the Moisture-absorption ability result in data set [3] was “⊚ (Amount of absorbed water per 1 g of keratin powder is 0.60 g or more)”. For the same compound, the Moisturizing effect entry in data set [4] is on record as “⊚ (60 or more)”.
Consider `CN(CC(=O)O)CC(O)CO` (centres unmarked) [Glyceryl derivative of sarcosine, N-glyaerylsarcosine], for which the “Moisturizing effect on skin” value in data set [1] (setting [5]) is given as “◯ (Conductance changing ratio is 10% more)”. Moreover, the Moisture-absorption ability entry in data set [3] is listed as “⊚ (Amount of absorbed water per 1 g of keratin powder is 0.60 g or more)”. The Moisturizing effect entry in data set [4] is reported as “⊚ (60 or more)”.
For the compound `Cl.NCCCC[C@H](NCC(O)CO)C(=O)O` (some centres unmarked) [Glyceryl derivative of lysine, N-glyceryllysine hydrochloride], in data set [1] (setting [5]), the “Moisturizing effect on skin” value is reported as “⊚”. Also, in data set [2], the Stability result is “Δ”. Also, the Moisture-absorption ability entry in data set [3] is “⊚ (Amount of absorbed water per 1 g of keratin powder is 0.60 g or more)”. Moreover, the Moisturizing effect entry in data set [4] is “⊚ (60 or more)”.
With `O=C([O-])CC[C@H](NCC(O)CO)C(=O)[O-].[Na+].[Na+]` (some centres unmarked) [Glyceryl derivative of glutamic acid, sodium N-glycerylglutamate], the “Moisturizing effect on skin” value in data set [1] (setting [5]) is listed as “⊚”. Also, the Stability entry in data set [2] was “◯”. Moreover, in data set [3], the Moisture-absorption ability entry was “⊚ (Amount of absorbed water per 1 g of keratin powder is 0.60 g or more)”. In data set [4], the Moisturizing effect result was “⊚ (60 or more)”.
On to `N[C@@H](CC(=O)[O-])C(=O)[O-].O.[Na+].[Na+]` [Sodium aspartate hydrate], for which the “Moisturizing effect on skin” value in data set [1] (setting [5]) was “Δ”. Further, in data set [2], the Stability result is recorded as “Δ”. In addition, the Moisture-absorption ability result in data set [3] was “Δ (Amount of absorbed water per 1 g of keratin powder is 0.40 g or more and less than 0.50 g)”. The Moisturizing effect entry in data set [4] is “Δ (40 or more and less than 50)”.
Regarding `Cl.N=C(N)NCCC[C@H](N)C(=O)O` [Arginine hydrochloride], the change in vivo at 5 % in data set [1] is greater than 10%. Besides, the Stability entry in data set [2] is reported as “◯”. Besides, in data set [3], the Moisture-absorption ability entry is “◯ (Amount of absorbed water per 1 g of keratin powder is 0.50 g or more and less than 0.60 g)”. The Moisturizing effect result in data set [4] was “◯ (50 or more and less than 60)”.
As for `CC(C)C[C@H](NCC(O)CO)C(=O)O` (some centres unmarked) [Glyceryl derivative of leucine, N-glycervylleucine], the “Moisturizing effect on skin” value in data set [1] (setting [5]) is recorded as “◯ (Conductance changing ratio is 10% more)”. For the same compound, the Moisture-absorption ability entry in data set [3] is “⊚ (Amount of absorbed water per 1 g of keratin powder is 0.60 g or more)”. In data set [4], the Moisturizing effect entry was “◯ (50 or more and less than 60)”.
Consider `O=C(O)[C@@H]1CCCN1` [Proline], for which, in data set [1] (setting [5]), the “Moisturizing effect on skin” value is reported as “Δ”. Moreover, the Moisture-absorption ability result in data set [3] was “◯ (Amount of absorbed water per 1 g of keratin powder is 0.50 g or more and less than 0.60 g)”. In addition, the Moisturizing effect result in data set [4] is “◯ (50 or more and less than 60)”.
As to `OCC(O)CO` [Glycerin], in data set [2], the Stability result is reported as “◯”. Besides, the Moisture-absorption ability entry in data set [3] is “◯ (Amount of absorbed water per 1 g of keratin powder is 0.50 g or more and less than 0.60 g)”. The Moisturizing effect result in data set [4] is “◯ (50 or more and less than 60)”.
As to `O=C(O)[C@H](Cc1ccccc1)NCC(O)CO` (some centres unmarked) [Glyceryl derivative of phenylalanine, N-glycerylphenylalanine], in data set [1] (setting [5]), the change in vivo at 5 % was greater than 10%. For the same compound, in data set [2], the Stability result is on record as “◯”. Besides, the Moisture-absorption ability entry in data set [3] was “⊚ (Amount of absorbed water per 1 g of keratin powder is 0.60 g or more)”. The Moisturizing effect result in data set [4] was “◯ (50 or more and less than 60)”.
Regarding “1 sodium N-glycerylaspartate [Glyceryl derivative of aspartic acid]”, the “Moisturizing effect on skin” value in data set [1] (setting [5]) is given as “⊚”.
With `N[C@@H](Cc1ccccc1)C(=O)O` [Phenylalanine], the change in vivo at 5 % in data set [1] (setting [5]) is less than 3%. Moreover, in data set [2], the “Formation of homogeneous solution of sample” value is given as “did not form homogeneous solution” and the Stability result is “Δ”. Further, the Moisture-absorption ability entry in data set [3] was “X (Amount of absorbed water per 1 g of keratin powder is less than 0.40 g)”. Also, the Moisturizing effect entry in data set [4] is “X (Less than 40)”.
Consider `C[C@H](N)C(=O)O` [Alanine], for which the Stability entry in data set [2] is “X (Less than 1.8)”.
Regarding `N[C@@H](CO)C(=O)O` [Serine], the change in vivo at 5 % in data set [1] (setting [5]) was less than 3%. Besides, in data set [3], the Moisture-absorption ability result is “Δ (Amount of absorbed water per 1 g of keratin powder is 0.40 g or more and less than 0.50 g)”. Also, the Moisturizing effect result in data set [4] is “Δ (40 or more and less than 50)”.
For the compound `Cl.O=C(O)[C@H](Cc1c[nH]cn1)NCC(O)CO` (some centres unmarked) [Glyceryl derivative of histidine, M-glycerylhistidine hydrochloride], in data set [1] (setting [5]), the “Moisturizing effect on skin” value is reported as “⊚”. Also, the Moisture-absorption ability entry in data set [3] is “⊚ (Amount of absorbed water per 1 g of keratin powder is 0.60 g or more)”. Moreover, the Moisturizing effect result in data set [4] is “⊚ (60 or more)”.
For the compound `Cl.N[C@@H](Cc1cnc[nH]1)C(=O)O` [Histidine hdrochloride], the “Moisturizing effect on skin” value in data set [1] (setting [5]) was “Δ”. The Moisture-absorption ability entry in data set [3] is “Δ (Amount of absorbed water per 1 g of keratin powder is 0.40 g or more and less than 0.50 g)”. For the same compound, the Moisturizing effect entry in data set [4] is “Δ (40 or more and less than 50)”.
As to `NCC(=O)O` [Glycine], the “Moisturizing effect on skin” value in data set [1] (setting [5]) is “Δ”. In addition, the Moisture-absorption ability entry in data set [3] is “Δ (Amount of absorbed water per 1 g of keratin powder is 0.40 g or more and less than 0.50 g)”. The Moisturizing effect entry in data set [4] was “Δ (40 or more and less than 50)”.
